In ChEMBL document CHEMBL4665757, “Design and synthesis of dual active neovibsanin derivatives based on a chemical structure merging method” (Bioorg Med Chem Lett, 2020) one finds Activity and solubility data, which are given here for 3 molecules.

The subject of data set [1] is PC-12. As to the kind of experiment: Induction of neurite outgrowth in rat PC12 cells at 30 uM incubated for 4 days in presence of NGF by phase contrast microscopic analysis. It counts as functional, cell-based. The following applies: time 4.0 day.
Data set [2] deals with PC-12. As to the kind of experiment: Induction of neurite outgrowth in rat PC12 cells at 30 uM incubated for 4 days by phase contrast microscopic analysis. Conditions: time 4.0 day. It is filed as functional, cell-based.
Data set [3] has as its system PC-12. As to the kind of experiment: Induction of neurite outgrowth in rat PC12 cells at 0.3 to 30 uM incubated for 4 days in presence of NGF by phase contrast microscopic analysis. It is filed as functional, cell-based. Conditions: dose microM 0.3-30, time 4.0 day.
The nature of data set [4]: Solubility in water. It is filed as physicochemical. Conditions: buffer.

Calls of active or inactive are those of the source. The calls are words filed in the database; no cut-off is given here.

Take `COC1(C)C[C@@H]2OCC3=CCCC[C@]32O1` (stereo not given in full): the outcome in the data set with PC-12 [1] was Active.
`COc1ccc(/C=C/[C@@H]2CCC=C[C@H]2c2ccc(OC)c(OC)c2)cc1OC`: the result in the data set with PC-12 [2] was Active.
Take `COc1ccc(/C=C/[C@@H]2C[C@@]34OC(C)(O)C[C@@H]3OCC4=C[C@H]2c2ccc(OC)c(OC)c2)cc1OC` (mixture of isomers): the outcome with PC-12 [3] and with PC-12 [2] was Active. Further, the solubility entry in data set [4] is listed as “Insoluble”.
